Measurements published in US20150366839A1, “Schisantherin A for the treatment of neurodegenerative diseases” (priority 2014, published 2015).
Where two headings read alike, the source gives them in different places.

Experiments:
Akt = assay: p-Akt level after MPP+, Western blot; type: cell-based, Human
Method: (§1) After treatment, SH-SY5Y cells were washed three times with PBS and then lysis with RIPA lysis buffer containing 1% PMSF and 1% Protease Inhibitor Cocktail and incubated for 30 min on ice. Cell lysates were centrifuged at 12,500 g for 20 min at 4° C. The supernatant was separated and the amount of protein was determined using the BCA protein assay kit (Thermo Scientific Pierce, USA). Protein samples (30 μg) were separated by SDS-PAGE (10% (w/v)) polyacrylamide gel and then transferred to a polyvinylidene difluoride (PVDF) membrane (Bio-Rad, Hercules, Calif.). Subsequently, the membrane was blocked with 5% (v/v) non-fat milk in PBST (PBS containing 0.1% Tween 20) for 1 h at room temperature. The blots were incubated overnight at 4° C. with primary antibodies. […] Quantitative assessment of protein bands was done with Gel Doc™ XRS equipped with Quantity One software.
The inventors also investigated the contribution of the PI3K/Akt pathway in the neuroprotective effects of SchiA. The inventors measured phosphorylation-Akt (p-Akt) levels after pre-treated with 60 μM SchiA for 12 h and then exposed to 2 mM MPP for another 36 h. […] To further validate whether the activation of PI3K/Akt signaling pathway, the inventors determined the blocking effect of PI3K/Akt inhibitor such as AKT inhibitor IV on the in vitro neuroprotective effect of SchiA. […]

[1] = tested on: TH-positive neurons in the SNpc; type: in vivo, C57BL/6 mice; conditions: for neuroprotective effect on TH-positive neurons: then MPTP
Method: Male C57BL/6 mice (20±2 g body weight, 6-8 weeks of age) were purchased from the Laboratory Animal Center of Guangdong Province and were fed six animals per cage, under a 12 h light/dark cycle with ad libitum access to food and water. Mice were handled daily and allowed 3 days to acclimate before each treatment. Six groups of mice (n=7/group, total 42 mice) were assigned for the neuroprotective study in vivo. SchiA at different concentrations (30, 100 or 300 mg/kg/day), positive control drug (Selegiline, 10 mg/kg/day) or vehicle (Tween-80/ml propylene glycol/alcohol/5% PVA, 1:1:1:17, v/v/v/v) were administered by intragastric gavage (i.g.) daily for 14 days. Then mice were injected by intraperitoneal (i.p.) with 30 mg/kg MPTP hydrochloride (Sigma-Aldrich) or physiological saline daily on days 15-19 (total 5 days). In order to allow for the full conversion of MPTP to its active metabolite MPP^+, a further 3 days of resting period followed (Levites, Weinreb et al. 2001). All animal experiments were conducted according to the ethical guidelines for animal experiment of Jinan University. The experimental protocols were approved by the Ethics Committee for Animal Experiments of Jinan University (permit number 20110810).
Three days after MPTP treatment, animals were anesthetized by i.p. administration of […] chloral hydrate (10% (w/v) dissolved in distilled water) and perfused intracardially with 100 mL PBS (0.1 mmol/L, pH 7.4) followed by 150 mL 4% paraformaldehyde (PFA) in PBS. After intracardial perfusion, brains were collected and post-fixed in 4% PFA for another 24 h at 4° C., embedded in paraffin, and cut into 6 μm coronal sections encompassing the entire SNpc. As the decrease of TH-positive neurons in response to MPTP treatment is the most prominent at medial levels of the SNpc (Hayley, Crocker et al. 2004), the inventors selected the sections from the area encompassed between −3.08 and −3.20 from bregma to perform immunohistochemisty. Immunohistochemistry of brain tissues was performed as previously described (He, Yamauchi et al. 2008; Yokoyama, Takagi et al. 2008) with minor modifications. Sections were deparaffinized in xylene and rehydrated in a graded ethanol series. […] Non-specific protein binding was blocked with 10% bovine serum in PBS (0.01 M, pH 7.4). Between each treatment, the slides were washed at least three times with deionized water for 5 minutes. […] The results were analyzed by counting the numbers of TH-positive cells at ×10 magnifications on a stereomicroscope (BX51, Olympus Corp. Japan). TH-positive cells in 6 position-matched sections of each mouse were counted manually by operator who was blinded to the drug treatment. […]

CREB = assay: p-CREB, CREB and Bcl-2 time course with SchiA alone, Western blot; type: cell-based, Human; conditions: 60 μM alone
Method: as §1, with “antibodies. After three washes with PBST, the membranes were incubated with horseradish peroxidase-conjugated secondary antibodies (1:2000) in PBST with 5% non-fat milk for 1 h at room temperature. After repeated washes, proteins were visualized with an ECL advanced western blotting detection kit.” for “antibodies.”
To investigate the effect of SchiA on the activation of the upstream targets of CREB in MPP^+-treated SH-SY5Y cells, the protein levels of p-CREB/CREB and were determined. […]

COc1cc2c(c(OC)c1OC)-c1c(cc3c(c1OC)OCO3)C[C@H](C)[C@](C)(O)[C@H]2OC(=O)c1ccccc1 [SchiA, Schisantherin A]
MPP+-induced down-regulation of Akt expressions (Akt; 60 μM 12 h, then 2 mM MPP+ 36 h): inhibited
p-Akt level compared to control group, compound alone (Akt; 60 μM, without MPP+): 2.5 fold
neuroprotective effect on TH-positive neurons ([1]; 30 mg/kg): did not exert statistical significant neuroprotective effect
neuroprotective effect on TH-positive neurons ([1]; 100 mg/kg): did not exert statistical significant neuroprotective effect
TH-positive neurons in SNpc ([1]; 300 mg/kg/day i.g. 14 days, then MPTP 30 mg/kg i.p. 5 days): 82±12 cells/section
phosphorylation of CREB compared with 0 h (CREB; after 3 h): about 1.5 fold
Bcl-2 expression (CREB; from 3 h to 12 h): induced
